Key:
Assay type in all cases: in vivo
ducksalad [1] = test: Test Example 1: herbicidal effects in preemergence treatment under submerged conditions; settings: dose 2.52 g/a
Outline: (§1)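 Alluvial soil was flooded to 4 cm, sown with barnyardgrass, bulrush and ducksalad, and planted with 2.5-leaf rice seedlings. On the seeding day, water-diluted emulsifiable concentrates were applied to the water surface at set doses (g/a). After three weeks in a 25 to 30° C. greenhouse, mortality was scored 0–5.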

barnyardgrass [2] = test: as above; settings: dose 2.52 g/a
Outline: as §1

bulrush [3] = test: as above; settings: dose 2.52 g/a
Outline: as §1

ducksalad [4] = test: Test Example 2: herbicidal effects during the vegetation period under submerged conditions; settings: treatment during the vegetation period under submerged conditions; dose 2.52 g/a
Outline: (§2)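 Barnyardgrass, bulrush and ducksalad were co-sown in alluvial soil flooded to 4 cm and grown in a greenhouse at 25 to 30° C. At the 1- or 2-leaf stage, water-diluted emulsifiable concentrates went onto the water surface at set doses (g/a). Herbicidal effect was scored three weeks later on a graded scale.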

barnyardgrass [5] = test: as above; settings: treatment during the vegetation period under submerged conditions; dose 2.52 g/a
Outline: as §2

bulrush [6] = test: as above; settings: treatment during the vegetation period under submerged conditions; dose 2.52 g/a
Outline: as §2

common lambsquater [7] = test: Test Example 4: herbicidal effect in foliage treatment; settings: dose 3.2 g/a, three weeks after application
Outline: (§3)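 Herbicidal effect was rated on an evaluation scale three weeks after treatment. Plants had been raised 14 days at 25 to 30° C in sterilized diluvial soil, then received foliar sprays of emulsifiable concentrate diluted in water at predetermined doses expressed as g per are.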

common ragweed [8] = test: as above; settings: dose 3.2 g/a, three weeks after application
Outline: as §3

beadstraw = test: as above; settings: dose 3.2 g/a, three weeks after application
Outline: as §3

large crabgrass [9] = test: as above; settings: dose 3.2 g/a, three weeks after application
Outline: as §3

velvetleaf [10] = test: as above; settings: dose 3.2 g/a, three weeks after application
Outline: as §3

barnyardgrass [11] = test: as above; settings: dose 3.2 g/a, three weeks after application
Outline: as §3

common chickweed [12] = test: as above; settings: dose 3.2 g/a, three weeks after application
Outline: as §3

giant foxtail [13] = test: as above; settings: dose 3.2 g/a, three weeks after application
Outline: as §3

Italian ryegrass [14] = test: as above; settings: dose 3.2 g/a, three weeks after application
Outline: as §3

posumbu knotweed [15] = test: as above; settings: dose 3.2 g/a, three weeks after application
Outline: as §3

water foxtail [16] = test: as above; settings: dose 3.2 g/a, three weeks after application
Outline: as §3

wild oat [17] = test: as above; settings: dose 3.2 g/a, three weeks after application
Outline: as §3

redroot pigweed [18] = test: as above; settings: dose 3.2 g/a, three weeks after application
Outline: as §3

common lambsquater [19] = test: Test Example 3: herbicidal effects in soil treatment; settings: dose 3.2 g/a
Outline: (§4)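 Seeds were sown in sterilized diluvial soil and covered with about 1.5 cm of soil. Compounds, formulated as emulsifiable concentrates and diluted with water, were sprayed evenly over the soil surface at set doses in g/a. Herbicidal effect was scored on a rating scale three weeks later.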

common ragweed [20] = test: as above; settings: dose 3.2 g/a
Outline: as §4

large crabgrass [21] = test: as above; settings: dose 3.2 g/a
Outline: as §4

velvetleaf [22] = test: as above; settings: dose 3.2 g/a
Outline: as §4

barnyardgrass [23] = test: as above; settings: dose 3.2 g/a
Outline: as §4

common chickweed [24] = test: as above; settings: dose 3.2 g/a
Outline: as §4

giant foxtail [25] = test: as above; settings: dose 3.2 g/a
Outline: as §4

Italian ryegrass [26] = test: as above; settings: dose 3.2 g/a
Outline: as §4

posumbu knotweed [27] = test: as above; settings: dose 3.2 g/a
Outline: as §4

water foxtail [28] = test: as above; settings: dose 3.2 g/a
Outline: as §4

wild oat [29] = test: as above; settings: dose 3.2 g/a
Outline: as §4

redroot pigweed [30] = test: as above; settings: dose 3.2 g/a
Outline: as §4

transplanted rice = test: Test Example 1: preemergence treatment under submerged conditions, effect on crop; settings: dose 2.52 g/a
Outline: as §1

Compound: CC1COCC(=O)N1Cc1ccccc1NS(=O)(=O)C(F)(F)F (stereo not shown) [Compound I-13]
- C: ducksalad, herbicidal effect (evaluation scale 0-5) (ducksalad [1]): 5 (mortality of 90% or above (nearly complete death))
- A: barnyardgrass, herbicidal effect (evaluation scale 0-5) (barnyardgrass [2]): 5 (mortality of 90% or above (nearly complete death))
- B: bulrush, herbicidal effect (evaluation scale 0-5) (bulrush [3]): 5 (mortality of 90% or above (nearly complete death))
- C: ducksalad, herbicidal effect (evaluation scale 0-5) (ducksalad [4]): 5 (mortality of 90% or above (nearly complete death))
- A: barnyardgrass, herbicidal effect (evaluation scale 0-5) (barnyardgrass [5]): 5 (mortality of 90% or above (nearly complete death))
- B: bulrush, herbicidal effect (evaluation scale 0-5) (bulrush [6]): 5 (mortality of 90% or above (nearly complete death))
- L: common lambsquater, herbicidal effect (common lambsquater [7]): 3 (mortality of at least 40% and less than 70%)
- J: common ragweed, herbicidal effect (common ragweed [8]): 4 (mortality of at least 70% and less than 90%)
- O: beadstraw, herbicidal effect (beadstraw): 4 (mortality of at least 70% and less than 90%)
- D: large crabgrass, herbicidal effect (large crabgrass [9]): 5 (mortality of 90% or above (nearly complete death))
- I: velvetleaf, herbicidal effect (velvetleaf [10]): 5 (mortality of 90% or above (nearly complete death))
- A: barnyardgrass, herbicidal effect (barnyardgrass [11]): 5 (mortality of 90% or above (nearly complete death))
- N: common chickweed, herbicidal effect (common chickweed [12]): 4 (mortality of at least 70% and less than 90%)
- E: giant foxtail, herbicidal effect (giant foxtail [13]): 4 (mortality of at least 70% and less than 90%)
- H: Italian ryegrass, herbicidal effect (Italian ryegrass [14]): 5 (mortality of 90% or above (nearly complete death))
- M: posumbu knotweed, herbicidal effect (posumbu knotweed [15]): 3 (mortality of at least 40% and less than 70%)
- G: water foxtail, herbicidal effect (water foxtail [16]): 5 (mortality of 90% or above (nearly complete death))
- F: wild oat, herbicidal effect (wild oat [17]): 0 (mortality of less than 5% (almost ineffective))
- K: redroot pigweed, herbicidal effect (redroot pigweed [18]): 3 (mortality of at least 40% and less than 70%)
- L: common lambsquater, herbicidal effect (evaluation scale 0-5) (common lambsquater [19]): 5 (mortality of 90% or above (nearly complete death))
- J: common ragweed, herbicidal effect (evaluation scale 0-5) (common ragweed [20]): 5 (mortality of 90% or above (nearly complete death))
- D: large crabgrass, herbicidal effect (evaluation scale 0-5) (large crabgrass [21]): 5 (mortality of 90% or above (nearly complete death))
- I: velvetleaf, herbicidal effect (evaluation scale 0-5) (velvetleaf [22]): 5 (mortality of 90% or above (nearly complete death))
- A: barnyardgrass, herbicidal effect (evaluation scale 0-5) (barnyardgrass [23]): 5 (mortality of 90% or above (nearly complete death))
- N: common chickweed, herbicidal effect (evaluation scale 0-5) (common chickweed [24]): 5 (mortality of 90% or above (nearly complete death))
- E: giant foxtail, herbicidal effect (evaluation scale 0-5) (giant foxtail [25]): 5 (mortality of 90% or above (nearly complete death))
- H: Italian ryegrass, herbicidal effect (evaluation scale 0-5) (Italian ryegrass [26]): 5 (mortality of 90% or above (nearly complete death))
- M: posumbu knotweed, herbicidal effect (evaluation scale 0-5) (posumbu knotweed [27]): 5 (mortality of 90% or above (nearly complete death))
- G: water foxtail, herbicidal effect (evaluation scale 0-5) (water foxtail [28]): 5 (mortality of 90% or above (nearly complete death))
- F: wild oat, herbicidal effect (evaluation scale 0-5) (wild oat [29]): 3 (mortality of at least 40% and less than 70%)
- K: redroot pigweed, herbicidal effect (evaluation scale 0-5) (redroot pigweed [30]): 5 (mortality of 90% or above (nearly complete death))
- a: transplanted rice, effect on crop (evaluation scale 0-5) (transplanted rice): 1 (mortality of at least 5% and less than 20%)

Compound: CCOC(=O)N(c1ccccc1CN1C(=O)COCC1C)S(=O)(=O)C(F)(F)F (stereo not shown) [Compound I-14]
- C: ducksalad, herbicidal effect (evaluation scale 0-5) (ducksalad [1]): 5 (mortality of 90% or above (nearly complete death))
- A: barnyardgrass, herbicidal effect (evaluation scale 0-5) (barnyardgrass [2]): 5 (mortality of 90% or above (nearly complete death))
- B: bulrush, herbicidal effect (evaluation scale 0-5) (bulrush [3]): 5 (mortality of 90% or above (nearly complete death))
- C: ducksalad, herbicidal effect (evaluation scale 0-5) (ducksalad [4]): 5 (mortality of 90% or above (nearly complete death))
- A: barnyardgrass, herbicidal effect (evaluation scale 0-5) (barnyardgrass [5]): 5 (mortality of 90% or above (nearly complete death))
- B: bulrush, herbicidal effect (evaluation scale 0-5) (bulrush [6]): 5 (mortality of 90% or above (nearly complete death))
- L: common lambsquater, herbicidal effect (common lambsquater [7]): 5 (mortality of 90% or above (nearly complete death))
- J: common ragweed, herbicidal effect (common ragweed [8]): 4 (mortality of at least 70% and less than 90%)
- O: beadstraw, herbicidal effect (beadstraw): 4 (mortality of at least 70% and less than 90%)
- D: large crabgrass, herbicidal effect (large crabgrass [9]): 4 (mortality of at least 70% and less than 90%)
- I: velvetleaf, herbicidal effect (velvetleaf [10]): 5 (mortality of 90% or above (nearly complete death))
- A: barnyardgrass, herbicidal effect (barnyardgrass [11]): 5 (mortality of 90% or above (nearly complete death))
- N: common chickweed, herbicidal effect (common chickweed [12]): 4 (mortality of at least 70% and less than 90%)
- E: giant foxtail, herbicidal effect (giant foxtail [13]): 4 (mortality of at least 70% and less than 90%)
- H: Italian ryegrass, herbicidal effect (Italian ryegrass [14]): 5 (mortality of 90% or above (nearly complete death))
- M: posumbu knotweed, herbicidal effect (posumbu knotweed [15]): 4 (mortality of at least 70% and less than 90%)
- G: water foxtail, herbicidal effect (water foxtail [16]): 5 (mortality of 90% or above (nearly complete death))
- F: wild oat, herbicidal effect (wild oat [17]): 0 (mortality of less than 5% (almost ineffective))
- K: redroot pigweed, herbicidal effect (redroot pigweed [18]): 4 (mortality of at least 70% and less than 90%)
- L: common lambsquater, herbicidal effect (evaluation scale 0-5) (common lambsquater [19]): 5 (mortality of 90% or above (nearly complete death))
- J: common ragweed, herbicidal effect (evaluation scale 0-5) (common ragweed [20]): 5 (mortality of 90% or above (nearly complete death))
- D: large crabgrass, herbicidal effect (evaluation scale 0-5) (large crabgrass [21]): 5 (mortality of 90% or above (nearly complete death))
- I: velvetleaf, herbicidal effect (evaluation scale 0-5) (velvetleaf [22]): 5 (mortality of 90% or above (nearly complete death))
- A: barnyardgrass, herbicidal effect (evaluation scale 0-5) (barnyardgrass [23]): 5 (mortality of 90% or above (nearly complete death))
- N: common chickweed, herbicidal effect (evaluation scale 0-5) (common chickweed [24]): 5 (mortality of 90% or above (nearly complete death))
- E: giant foxtail, herbicidal effect (evaluation scale 0-5) (giant foxtail [25]): 5 (mortality of 90% or above (nearly complete death))
- H: Italian ryegrass, herbicidal effect (evaluation scale 0-5) (Italian ryegrass [26]): 5 (mortality of 90% or above (nearly complete death))
- M: posumbu knotweed, herbicidal effect (evaluation scale 0-5) (posumbu knotweed [27]): 5 (mortality of 90% or above (nearly complete death))
- G: water foxtail, herbicidal effect (evaluation scale 0-5) (water foxtail [28]): 5 (mortality of 90% or above (nearly complete death))
- F: wild oat, herbicidal effect (evaluation scale 0-5) (wild oat [29]): 4 (mortality of at least 70% and less than 90%)
- K: redroot pigweed, herbicidal effect (evaluation scale 0-5) (redroot pigweed [30]): 5 (mortality of 90% or above (nearly complete death))
- a: transplanted rice, effect on crop (evaluation scale 0-5) (transplanted rice): 0 (mortality of less than 5% (almost ineffective))
